Among the data in patent US20230203098A1, “HUMAN TRANSFERRIN RECEPTOR BINDING PEPTIDE” (priority 2020, published 2023) are Kd values, retold here.

pKd: −log10 of the molar value. Where two headings read alike, the source gives them in different places. *1 amine or outer side, *2 acyl side, *3 side chain or, on linkers, in order; H or OH if unused. Where a SMILES comes first, the peptide text is derived from it. Bridges are numbered along the chain shown (N, C = ends). [ ]: non-standard residue; d: D form. Trp(1-CH2COOH) = N[C@@H](Cc1cn(CC(=O)O)c2ccccc12)C(=O)O; X3 = NC(=O)Cn1cc(C[C@H](N[*:1])C(=O)[*:2])c2ccccc21; NMePhe(3-Cl) = CN[C@@H](Cc1cccc(Cl)c1)C(=O)O; NMeW = CN[C@@H](Cc1c[nH]c2ccccc12)C(=O)O; NMeY = CN[C@@H](Cc1ccc(O)cc1)C(=O)O; Aad = N[C@@H](CCCC(=O)O)C(=O)O; PEG4 = NCCOCCOCCOCCOCCC(=O)O; Tle = CC(C)(C)[C@H](N)C(=O)O; hLys = NCCCCC[C@H](N)C(=O)O; Aib = CC(C)(N)C(=O)O

This assay addresses transferrin receptor (hTfR) (Homo sapiens, UniProt P02786). Description: Intermolecular interaction evaluation test between transferrin receptor (hTfR) and peptide by surface plasmon resonance (SPR). Format: binding. Put shortly: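 Receptor was Ni-captured and EDC/NHS-fixed on an NTA chip; running buffer HEPES pH 8.0 with NaCl, Tween 20, BSA and 1.0% DMSO.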
(In general: In SPR one partner is held on a chip, and binding of the other changes the refractive index at the surface.)

Setting [1] is: surface plasmon resonance, peptide vs hTfR, read-out: KD value, hTfR binding by SPR (class symbol).

transferrin receptor (hTfR), sequence (P02786 whole entry): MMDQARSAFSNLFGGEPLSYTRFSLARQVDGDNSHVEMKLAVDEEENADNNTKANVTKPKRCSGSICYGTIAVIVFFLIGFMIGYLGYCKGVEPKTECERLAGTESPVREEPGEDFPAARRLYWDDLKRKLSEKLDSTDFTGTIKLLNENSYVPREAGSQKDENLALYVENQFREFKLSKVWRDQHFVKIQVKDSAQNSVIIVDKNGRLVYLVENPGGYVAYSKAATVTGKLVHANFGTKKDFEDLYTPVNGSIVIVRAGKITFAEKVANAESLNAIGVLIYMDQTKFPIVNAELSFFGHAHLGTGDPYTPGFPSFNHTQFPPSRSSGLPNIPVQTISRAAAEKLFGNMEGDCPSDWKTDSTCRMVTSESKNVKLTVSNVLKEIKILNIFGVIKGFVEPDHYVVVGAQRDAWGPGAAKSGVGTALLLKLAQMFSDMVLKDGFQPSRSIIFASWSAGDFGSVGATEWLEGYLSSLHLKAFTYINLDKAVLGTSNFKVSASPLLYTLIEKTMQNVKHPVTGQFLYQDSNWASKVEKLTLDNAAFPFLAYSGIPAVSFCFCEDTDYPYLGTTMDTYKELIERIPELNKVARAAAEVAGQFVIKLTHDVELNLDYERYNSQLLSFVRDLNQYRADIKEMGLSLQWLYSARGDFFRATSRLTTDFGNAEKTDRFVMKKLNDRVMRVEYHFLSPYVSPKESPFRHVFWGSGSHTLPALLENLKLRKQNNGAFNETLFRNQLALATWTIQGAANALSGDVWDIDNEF

One may read the pKd as −log10 of the Kd, conventionally taken in molar units. Consider `CC[C@H](C)[C@@H]1NC(=O)[C@H](Cc2ccc(OC)cc2)NC(=O)[C@H](Cc2ccc(O)cc2)NC(=O)[C@H](CC(N)=O)NC(=O)[C@H](Cc2c[nH]c3ccccc23)N(C)C(=O)[C@H](C(C)C)NC(=O)[C@H](Cc2cccc(Cl)c2)N(C)C(=O)[C@H](C(C)C)NC(=O)[C@H](C)NC(=O)CSC[C@@H](C(=O)NCCOCCOCCOCCOCCC(N)=O)NC(=O)[C@H](Cc2ccc(O)cc2)N(C)C(=O)[C@H](Cc2ccccc2)NC(=O)[C@@H](CCCNC(=N)N)NC(=O)[C@H](CCCNC(=N)N)NC(=O)[C@H]([C@H](C)O)NC1=O` [compound 332], for which the negative logarithm of the Kd (pKd) under setting [1] was 7.00 to 9.00.

In the case of `CC[C@H](C)[C@@H]1NC(=O)[C@H](Cc2ccc(O)cc2)NC(=O)[C@H](Cc2ccc(O)cc2)NC(=O)[C@H](CC(N)=O)NC(=O)[C@H](Cc2c[nH]c3ccccc23)NC(=O)[C@H](C(C)C)NC(=O)[C@H](Cc2ccccc2)N(C)C(=O)[C@H](C(C)C)NC(=O)[C@H](C)NC(=O)CSC[C@@H](C(=O)NCC(=O)NCC(=O)N[C@@H](CO)C(=O)NCC(=O)N[C@@H](CO)C(=O)N[C@@H](CO)C(=O)NCC(=O)N[C@@H](CO)C(=O)N[C@@H](CO)C(=O)N[C@@H](CCCCNC(=O)C2CCC(CN3C(=O)C=CC3=O)CC2)C(N)=O)NC(=O)[C@H](Cc2ccc(O)cc2)N(C)C(=O)[C@H](Cc2ccc(O)cc2)NC(=O)[C@H](CCCNC(=N)N)NC(=O)[C@H](CCCNC(=N)N)NC(=O)[C@H]([C@@H](C)CC)NC1=O` (some centres unmarked) [compound 189], where the note is “hTfR binding by SPR, hTfR No. 894 variant peptides, linker-added peptides and payload conjugates (Table 2), read-out: KD value obtained from the SPR measurement”, the negative-log Kd (pKd) is 7.00 to 9.00.

As for `CC[C@H](C)[C@@H]1NC(=O)[C@H](Cc2ccc(OC)cc2)NC(=O)[C@H](Cc2ccc(O)cc2)NC(=O)[C@H](CC(N)=O)NC(=O)[C@H](Cc2c[nH]c3ccccc23)N(C)C(=O)[C@H](C(C)C)NC(=O)[C@H](Cc2cccc(Cl)c2)N(C)C(=O)[C@H](C(C)C)NC(=O)[C@H](C)NC(=O)CSC[C@@H](C(=O)NCCOCCOCCOCCOCCC(N)=O)NC(=O)[C@H](Cc2ccc(O)cc2)N(C)C(=O)[C@H](Cc2ccccc2)NC(=O)[C@@H](CCCNC(=N)N)NC(=O)[C@H](CCCNC(=N)N)NC(=O)[C@H](C(C)(C)C)NC1=O` [compound 327] ({CH2CO}-AV[NMePhe(3-Cl)]V[NMeW]NYY(Me)I[Tle]R[dR]F[NMeY]C[PEG4]-NH2; thioether N-15), under setting [1], the pKd is 7.00 to 9.00.

Consider `CC[C@H](C)[C@@H]1NC(=O)[C@H](Cc2ccc(O)cc2)NC(=O)[C@H](Cc2ccc(O)cc2)NC(=O)[C@H](CC(N)=O)NC(=O)[C@H](Cc2cn(CC(=O)O)c3ccccc23)NC(=O)[C@H](C(C)C)NC(=O)[C@H](Cc2cccc(Cl)c2)N(C)C(=O)[C@@H]2CCCC(=O)NCCCCC[C@H](NC(=O)[C@H]([C@@H](C)CC)NC1=O)C(=O)N[C@H](CCCNC(=N)N)C(=O)N[C@@H](Cc1ccccc1)C(=O)N(C)[C@@H](Cc1ccc(O)cc1)C(=O)N[C@H](C(N)=O)CSCC(=O)N[C@@H](C)C(=O)N2` [compound 419] ({CH2CO}-A[Aad][NMePhe(3-Cl)]V[Trp(1-CH2COOH)]NYYII[hLys][dR]F[NMeY]C-NH2; lactam 2-11; thioether N-15), for which, under “surface plasmon resonance, peptide vs hTfR, read-out: KD value for hTfR by SPR (class symbol)”, the negative logarithm of the Kd (pKd) was 7.00 to 9.00.

Consider `CC[C@H](C)[C@@H]1NC(=O)[C@H](Cc2ccc(OC)cc2)NC(=O)[C@H](Cc2ccc(O)cc2)NC(=O)[C@H](CC(N)=O)NC(=O)[C@H](Cc2cn(CC(N)=O)c3ccccc23)NC(=O)[C@H](C(C)C)NC(=O)[C@H](Cc2cccc(Cl)c2)N(C)C(=O)[C@H](C(C)C)NC(=O)[C@H](C)NC(=O)CSC[C@@H](C(N)=O)NC(=O)[C@H](Cc2ccc(O)cc2)N(C)C(=O)[C@H](Cc2ccccc2)NC(=O)[C@@H](CCCNC(=N)N)NC(=O)C(C)(C)NC(=O)[C@H]([C@@H](C)CC)NC1=O` [compound 304] ({CH2CO}-AV[NMePhe(3-Cl)]V[X3]NYY(Me)II[Aib][dR]F[NMeY]C-NH2; thioether N-15), for which the pKd under setting [1] was 6.00 to 7.00.
